What was measured:
Assay in all cases: Viral trapping in VLPs, MS analysis
EIF1AY = type: binding, human; conditions: all proteins (incl. low confidence identifications)
LAMTOR5 = molecular target: T1, LAMTOR5 (Homo sapiens, UniProt O43504); type: binding; conditions: all proteins (incl. low confidence identifications)
T1 construct: endogenous in cells; host or cells: HEK293T

SLC46A1 = molecular target: T2, SLC46A1 (Homo sapiens, UniProt Q96NT5); type: binding; conditions: all proteins (incl. low confidence identifications)
T2 construct: endogenous in cells; host or cells: HEK293T

DDTL = type: binding, human; conditions: all proteins (incl. low confidence identifications)
AKT3 = molecular target: T3, AKT3 (Homo sapiens, UniProt Q9Y243); type: binding; conditions: all proteins (incl. low confidence identifications)
T3 construct: endogenous in cells; host or cells: HEK293T

PYGM = type: binding, human; conditions: all proteins (incl. low confidence identifications)
TMED9 = molecular target: T4, TMED9 (Homo sapiens, UniProt Q9BVK6); type: binding; conditions: all proteins (incl. low confidence identifications)
T4 construct: endogenous in cells; host or cells: HEK293T

KRT6B = molecular target: T5, KRT6B (Homo sapiens, UniProt P04259); type: binding
T5 construct: endogenous in cells; host or cells: HEK293T

GALNT1 = molecular target: T6, GALNT1 (Homo sapiens, UniProt Q10472); type: binding; conditions: all proteins (incl. low confidence identifications)
T6 construct: endogenous in cells; host or cells: HEK293T

PDIA4 = molecular target: T7, PDIA4 (Homo sapiens, UniProt P13667); type: binding
T7 construct: endogenous in cells; host or cells: HEK293T

TMED5 = molecular target: T8, TMED5 (Homo sapiens, UniProt Q9Y3A6); type: binding; conditions: all proteins (incl. low confidence identifications)
T8 construct: endogenous in cells; host or cells: HEK293T

SH3GL2 = molecular target: T9, SH3GL2 (Homo sapiens, UniProt Q99962); type: binding; conditions: all proteins (incl. low confidence identifications)
T9 construct: endogenous in cells; host or cells: HEK293T

MOXD1 = molecular target: T10, MOXD1 (Homo sapiens, UniProt Q6UVY6); type: binding; conditions: all proteins (incl. low confidence identifications)
T10 construct: endogenous in cells; host or cells: HEK293T

SBDS = molecular target: T11, SBDS (Homo sapiens, UniProt Q9Y3A5); type: binding; conditions: all proteins (incl. low confidence identifications)
T11 construct: endogenous in cells; host or cells: HEK293T

LOC512271 = type: binding; conditions: all proteins (incl. low confidence identifications)
KIAA0319L = molecular target: T12, KIAA0319L (Homo sapiens, UniProt Q8IZA0); type: binding
T12 construct: endogenous in cells; host or cells: HEK293T

GINS1 = molecular target: T13, GINS1 (Homo sapiens, UniProt Q14691); type: binding; conditions: all proteins (incl. low confidence identifications)
T13 construct: endogenous in cells; host or cells: HEK293T

VPS37D = molecular target: T14, VPS37D (Homo sapiens, UniProt Q86XT2); type: binding; conditions: all proteins (incl. low confidence identifications)
T14 construct: endogenous in cells; host or cells: HEK293T

ATP6V0C = molecular target: T15, ATP6V0C (Homo sapiens, UniProt P27449); type: binding; conditions: all proteins (incl. low confidence identifications)
T15 construct: endogenous in cells; host or cells: HEK293T

RAB4A = molecular target: T16, RAB4A (Homo sapiens, UniProt P20338); type: binding; conditions: all proteins (incl. low confidence identifications)
T16 construct: endogenous in cells; host or cells: HEK293T

LOC524129 = type: binding; conditions: all proteins (incl. low confidence identifications)
LNPEP = molecular target: T17, LNPEP (Homo sapiens, UniProt Q9UIQ6); type: binding; conditions: all proteins (incl. low confidence identifications)
T17 construct: endogenous in cells; host or cells: HEK293T

SARM1 = molecular target: T18, SARM1 (Homo sapiens, UniProt Q6SZW1); type: binding
T18 construct: endogenous in cells; host or cells: HEK293T

CNPY2 = molecular target: T19, CNPY2 (Homo sapiens, UniProt Q9Y2B0); type: binding; conditions: all proteins (incl. low confidence identifications)
T19 construct: endogenous in cells; host or cells: HEK293T

HMGCR = molecular target: T20, HMGCR (Homo sapiens, UniProt P04035); type: binding
T20 construct: endogenous in cells; host or cells: HEK293T

FHL1 = molecular target: T21, FHL1 (Homo sapiens, UniProt Q13642); type: binding; conditions: all proteins (incl. low confidence identifications)
T21 construct: endogenous in cells; host or cells: HEK293T

SLC17A1 = molecular target: T22, SLC17A1 (Homo sapiens, UniProt Q14916); type: binding; conditions: all proteins (incl. low confidence identifications)
T22 construct: endogenous in cells; host or cells: HEK293T

DBI = molecular target: T23, DBI (Homo sapiens, UniProt P07108); type: binding; conditions: all proteins (incl. low confidence identifications)
T23 construct: endogenous in cells; host or cells: HEK293T

FABP1 = molecular target: T24, FABP1 (Homo sapiens, UniProt P07148); type: binding; conditions: all proteins (incl. low confidence identifications)
T24 construct: endogenous in cells; host or cells: HEK293T

PRKCSH = molecular target: T25, PRKCSH (Homo sapiens, UniProt P14314); type: binding; conditions: all proteins (incl. low confidence identifications)
T25 construct: endogenous in cells; host or cells: HEK293T

CTU1 = molecular target: T26, CTU1 (Homo sapiens, UniProt Q7Z7A3); type: binding
T26 construct: endogenous in cells; host or cells: HEK293T

VAMP4 = molecular target: T27, VAMP4 (Homo sapiens, UniProt O75379); type: binding; conditions: all proteins (incl. low confidence identifications)
T27 construct: endogenous in cells; host or cells: HEK293T

UBIAD1 = molecular target: T28, UBIAD1 (Homo sapiens, UniProt Q9Y5Z9); type: binding
T28 construct: endogenous in cells; host or cells: HEK293T
Method: (§1) To screen for simvastatin binders, cells were transfected with the GAG-eDHFR construct and then treated immediately after transfection with the MTX-PEG6-simvastatin molecule. A total of five biological repeats were performed together with four DMSO control experiments. The list of candidate interactors was obtained after removal of all proteins (including proteins identified with a single peptide) that were found in 19 control samples, the four DMSO samples and the other small molecule samples (e.g., the protein list of the five simvastatin samples was challenged against a total of 29 samples). The control samples are a number of successful Virotrap experiments using unrelated proteins to generate a list of proteins that can be considered background proteins, and that can be subtracted from the protein list obtained for the actual samples.
(§2) For each small molecule condition, two lists of proteins (annotated by their gene name) were reported. The left part of the tables (“All proteins”) contains all unique protein identifications (thus also proteins identified with a single peptide) obtained after removal of the background proteins. The right part of the tables (“Proteins identified with >1 peptide”) contains only the proteins identified with high confidence (at least two modified peptide identifications for each protein). Some recurrent proteins that were identified in multiple experiments with a single peptide are removed from this list (e.g., PYGM identified with low confidence in two repeat experiments).

SQLE = molecular target: T29, SQLE (Homo sapiens, UniProt Q14534); type: binding
T29 construct: endogenous in cells; host or cells: HEK293T
Method: as §1, §2

RBP4 = type: binding, human; conditions: all proteins (incl. low confidence identifications)
[1] = all proteins (incl. low confidence identifications)
[2] = proteins identified with >1 peptide (high confidence)

T28 sequence (Q9Y5Z9 whole entry): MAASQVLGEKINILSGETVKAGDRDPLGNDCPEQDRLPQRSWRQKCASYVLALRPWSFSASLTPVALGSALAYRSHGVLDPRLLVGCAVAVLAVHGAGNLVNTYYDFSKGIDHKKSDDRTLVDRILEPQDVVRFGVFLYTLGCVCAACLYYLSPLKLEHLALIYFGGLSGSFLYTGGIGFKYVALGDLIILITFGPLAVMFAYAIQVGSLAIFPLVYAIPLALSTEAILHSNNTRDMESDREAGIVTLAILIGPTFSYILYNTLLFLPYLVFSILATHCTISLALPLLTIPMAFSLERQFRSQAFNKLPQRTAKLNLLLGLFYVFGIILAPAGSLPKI
T20 sequence (P04035 whole entry): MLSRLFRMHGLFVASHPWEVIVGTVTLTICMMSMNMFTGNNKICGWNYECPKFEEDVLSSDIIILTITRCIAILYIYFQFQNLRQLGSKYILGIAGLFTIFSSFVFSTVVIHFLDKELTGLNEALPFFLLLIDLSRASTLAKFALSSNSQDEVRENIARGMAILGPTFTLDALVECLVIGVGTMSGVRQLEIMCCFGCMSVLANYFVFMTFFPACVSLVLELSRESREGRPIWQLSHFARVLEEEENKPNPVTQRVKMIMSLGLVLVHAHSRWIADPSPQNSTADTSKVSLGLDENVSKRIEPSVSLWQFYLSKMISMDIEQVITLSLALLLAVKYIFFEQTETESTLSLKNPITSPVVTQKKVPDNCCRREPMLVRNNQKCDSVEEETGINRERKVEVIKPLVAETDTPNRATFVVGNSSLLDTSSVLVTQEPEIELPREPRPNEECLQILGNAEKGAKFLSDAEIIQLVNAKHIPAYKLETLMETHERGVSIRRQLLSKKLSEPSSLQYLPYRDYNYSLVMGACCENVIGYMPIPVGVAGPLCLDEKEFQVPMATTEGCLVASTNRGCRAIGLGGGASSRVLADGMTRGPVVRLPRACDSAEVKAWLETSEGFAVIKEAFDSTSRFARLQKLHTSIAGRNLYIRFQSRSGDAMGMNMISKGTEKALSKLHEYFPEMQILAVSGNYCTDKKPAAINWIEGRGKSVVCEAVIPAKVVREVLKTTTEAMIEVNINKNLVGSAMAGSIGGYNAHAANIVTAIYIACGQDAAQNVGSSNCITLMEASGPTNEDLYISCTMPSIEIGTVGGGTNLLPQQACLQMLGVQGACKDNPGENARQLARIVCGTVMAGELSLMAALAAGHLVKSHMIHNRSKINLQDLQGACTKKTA
T5 sequence (P04259 whole entry): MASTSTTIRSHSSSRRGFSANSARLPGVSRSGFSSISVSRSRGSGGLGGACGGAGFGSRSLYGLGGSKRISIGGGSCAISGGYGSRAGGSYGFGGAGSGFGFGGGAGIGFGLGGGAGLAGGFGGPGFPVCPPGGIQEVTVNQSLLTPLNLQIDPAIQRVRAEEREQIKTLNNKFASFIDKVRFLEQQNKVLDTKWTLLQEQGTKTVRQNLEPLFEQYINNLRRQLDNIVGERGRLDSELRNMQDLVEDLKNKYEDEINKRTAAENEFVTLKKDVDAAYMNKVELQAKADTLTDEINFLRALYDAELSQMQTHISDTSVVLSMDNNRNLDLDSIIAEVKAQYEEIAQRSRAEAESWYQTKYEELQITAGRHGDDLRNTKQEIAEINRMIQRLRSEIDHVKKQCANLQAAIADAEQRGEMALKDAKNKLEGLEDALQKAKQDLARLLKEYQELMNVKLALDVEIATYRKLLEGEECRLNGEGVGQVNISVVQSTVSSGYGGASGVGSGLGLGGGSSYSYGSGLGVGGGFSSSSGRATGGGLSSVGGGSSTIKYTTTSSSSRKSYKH
T18 sequence (Q6SZW1 28-724): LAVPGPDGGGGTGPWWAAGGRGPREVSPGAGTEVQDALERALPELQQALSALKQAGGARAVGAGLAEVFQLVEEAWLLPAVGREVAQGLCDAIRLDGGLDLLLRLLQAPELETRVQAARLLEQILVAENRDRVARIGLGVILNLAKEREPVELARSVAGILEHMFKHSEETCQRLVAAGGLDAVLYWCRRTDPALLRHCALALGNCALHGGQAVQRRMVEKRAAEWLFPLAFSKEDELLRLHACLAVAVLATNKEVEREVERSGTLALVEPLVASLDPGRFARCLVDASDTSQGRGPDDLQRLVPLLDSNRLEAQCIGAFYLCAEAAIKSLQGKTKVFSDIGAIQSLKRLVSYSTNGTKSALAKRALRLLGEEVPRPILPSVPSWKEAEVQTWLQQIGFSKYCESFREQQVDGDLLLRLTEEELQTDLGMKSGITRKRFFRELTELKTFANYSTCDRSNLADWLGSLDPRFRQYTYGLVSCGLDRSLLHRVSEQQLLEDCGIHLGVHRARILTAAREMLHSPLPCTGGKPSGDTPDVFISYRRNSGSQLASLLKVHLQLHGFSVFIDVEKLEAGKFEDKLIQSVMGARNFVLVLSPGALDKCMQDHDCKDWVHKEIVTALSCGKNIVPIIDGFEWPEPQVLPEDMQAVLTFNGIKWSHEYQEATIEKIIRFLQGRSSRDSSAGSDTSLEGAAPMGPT
T7 sequence (P13667 21-645): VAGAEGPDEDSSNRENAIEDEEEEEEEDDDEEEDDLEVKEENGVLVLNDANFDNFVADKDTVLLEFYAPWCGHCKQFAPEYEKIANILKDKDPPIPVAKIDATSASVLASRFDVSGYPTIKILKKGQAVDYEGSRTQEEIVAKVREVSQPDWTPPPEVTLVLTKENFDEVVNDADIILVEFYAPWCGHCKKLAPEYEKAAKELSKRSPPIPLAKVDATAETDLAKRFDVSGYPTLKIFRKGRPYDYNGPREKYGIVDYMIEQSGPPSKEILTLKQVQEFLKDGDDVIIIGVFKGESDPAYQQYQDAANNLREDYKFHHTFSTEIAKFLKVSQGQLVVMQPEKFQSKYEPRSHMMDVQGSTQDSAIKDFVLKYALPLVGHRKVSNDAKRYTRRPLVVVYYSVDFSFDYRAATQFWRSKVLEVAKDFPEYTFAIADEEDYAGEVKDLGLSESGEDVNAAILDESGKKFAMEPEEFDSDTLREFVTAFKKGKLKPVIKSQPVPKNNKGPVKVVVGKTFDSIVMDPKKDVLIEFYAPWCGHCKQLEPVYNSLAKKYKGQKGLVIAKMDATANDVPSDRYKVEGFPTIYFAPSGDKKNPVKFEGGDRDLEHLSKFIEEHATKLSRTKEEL
T26 sequence (Q7Z7A3 whole entry): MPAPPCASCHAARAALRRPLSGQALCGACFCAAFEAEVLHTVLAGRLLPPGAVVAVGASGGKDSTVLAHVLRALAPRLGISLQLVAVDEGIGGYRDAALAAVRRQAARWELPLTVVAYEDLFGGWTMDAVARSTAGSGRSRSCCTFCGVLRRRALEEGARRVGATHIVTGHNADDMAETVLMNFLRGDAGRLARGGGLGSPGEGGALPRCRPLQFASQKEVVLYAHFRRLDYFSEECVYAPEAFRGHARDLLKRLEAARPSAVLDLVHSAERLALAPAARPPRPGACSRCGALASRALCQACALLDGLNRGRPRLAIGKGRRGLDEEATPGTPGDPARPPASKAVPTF
T12 sequence (Q8IZA0 whole entry): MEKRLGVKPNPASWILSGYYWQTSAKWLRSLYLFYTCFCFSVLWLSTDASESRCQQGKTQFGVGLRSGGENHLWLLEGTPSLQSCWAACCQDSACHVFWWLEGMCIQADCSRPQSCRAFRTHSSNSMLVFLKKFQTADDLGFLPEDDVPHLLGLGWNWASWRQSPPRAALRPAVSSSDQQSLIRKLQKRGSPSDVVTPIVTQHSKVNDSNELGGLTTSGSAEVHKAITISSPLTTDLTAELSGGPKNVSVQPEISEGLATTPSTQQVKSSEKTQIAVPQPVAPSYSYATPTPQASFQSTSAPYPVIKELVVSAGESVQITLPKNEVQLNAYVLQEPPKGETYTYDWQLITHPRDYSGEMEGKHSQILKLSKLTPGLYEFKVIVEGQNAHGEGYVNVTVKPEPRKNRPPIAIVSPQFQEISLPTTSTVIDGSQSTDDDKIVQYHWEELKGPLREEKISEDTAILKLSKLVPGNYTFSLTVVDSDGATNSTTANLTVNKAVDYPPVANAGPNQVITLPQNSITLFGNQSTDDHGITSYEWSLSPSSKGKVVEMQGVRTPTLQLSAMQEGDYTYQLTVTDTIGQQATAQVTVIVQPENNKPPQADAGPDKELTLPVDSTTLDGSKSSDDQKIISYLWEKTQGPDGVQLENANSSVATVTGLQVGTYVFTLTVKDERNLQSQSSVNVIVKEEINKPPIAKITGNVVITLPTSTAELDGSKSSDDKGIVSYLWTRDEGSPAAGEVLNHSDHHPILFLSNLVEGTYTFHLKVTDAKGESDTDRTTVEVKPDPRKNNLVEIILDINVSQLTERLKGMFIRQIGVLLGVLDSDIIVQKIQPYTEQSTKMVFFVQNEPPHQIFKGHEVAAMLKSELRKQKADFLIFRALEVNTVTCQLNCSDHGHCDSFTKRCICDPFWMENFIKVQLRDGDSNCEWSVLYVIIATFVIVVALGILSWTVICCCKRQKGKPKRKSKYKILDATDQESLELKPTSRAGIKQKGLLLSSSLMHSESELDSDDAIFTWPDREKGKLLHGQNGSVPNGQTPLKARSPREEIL
T8 sequence (Q9Y3A6 28-229): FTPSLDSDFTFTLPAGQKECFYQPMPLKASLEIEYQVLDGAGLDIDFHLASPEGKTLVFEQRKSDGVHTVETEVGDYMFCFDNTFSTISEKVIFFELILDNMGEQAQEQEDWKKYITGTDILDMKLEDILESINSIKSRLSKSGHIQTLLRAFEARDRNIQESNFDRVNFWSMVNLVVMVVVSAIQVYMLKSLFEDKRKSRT
T4 sequence (Q9BVK6 38-235): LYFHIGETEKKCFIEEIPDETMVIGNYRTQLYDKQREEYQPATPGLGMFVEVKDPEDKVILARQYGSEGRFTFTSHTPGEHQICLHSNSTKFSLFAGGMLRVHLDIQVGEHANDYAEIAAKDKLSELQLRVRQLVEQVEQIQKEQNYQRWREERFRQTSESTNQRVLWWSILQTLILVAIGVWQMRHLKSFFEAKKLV
T23 sequence (P07108 whole entry): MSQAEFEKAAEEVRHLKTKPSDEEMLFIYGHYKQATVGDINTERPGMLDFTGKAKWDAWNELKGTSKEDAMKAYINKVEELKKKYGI

Recurrence (x/5) (LAMTOR5): 1 x/5
Recurrence (x/5) (SLC46A1): 1 x/5
Recurrence (x/5) (AKT3): 1 x/5
Recurrence (x/5) (TMED9): 1 x/5
Recurrence (x/5) (KRT6B; [1]): 1 x/5
Recurrence (x/5) (KRT6B; [2]): 1 x/5
Recurrence (x/5) (GALNT1): 1 x/5
Recurrence (x/5) (PDIA4; [1]): 1 x/5
Recurrence (x/5) (PDIA4; [2]): 1 x/5
Recurrence (x/5) (TMED5): 1 x/5
Recurrence (x/5) (SH3GL2): 1 x/5
Recurrence (x/5) (MOXD1): 1 x/5
Recurrence (x/5) (SBDS): 1 x/5
Recurrence (x/5) (KIAA0319L; [1]): 1 x/5
Recurrence (x/5) (KIAA0319L; [2]): 1 x/5
Recurrence (x/5) (GINS1): 1 x/5
Recurrence (x/5) (VPS37D): 1 x/5
Recurrence (x/5) (ATP6V0C): 1 x/5
Recurrence (x/5) (RAB4A): 1 x/5
Recurrence (x/5) (LNPEP): 1 x/5
Recurrence (x/5) (SARM1; [1]): 3 x/5
Recurrence (x/5) (SARM1; [2]): 3 x/5
Recurrence (x/5) (CNPY2): 1 x/5
Recurrence (x/5) (HMGCR; [1]): 5 x/5
Recurrence (x/5) (HMGCR; [2]): 5 x/5
Recurrence (x/5) (FHL1): 1 x/5
Recurrence (x/5) (SLC17A1): 1 x/5
Recurrence (x/5) (DBI): 1 x/5
Recurrence (x/5) (FABP1): 1 x/5
Recurrence (x/5) (PRKCSH): 1 x/5
Recurrence (x/5) (CTU1; [1]): 1 x/5
Recurrence (x/5) (CTU1; [2]): 1 x/5
Recurrence (x/5) (VAMP4): 1 x/5
Recurrence (x/5) (UBIAD1; [1]): 1 x/5
Recurrence (x/5) (UBIAD1; [2]): 1 x/5
Recurrence (x/5) (SQLE; [1]): 4 x/5
Recurrence (x/5) (SQLE; [2]): 3 x/5
SMILES: CC1C=C2C=CC(C)C(CCC3CC(O)CC(=O)O3)C2C(OC(=O)C(C)(C)Cc2cn(CCOCCOCCOCCOCCOCCNC(=O)CCC(NC(=O)c3ccc(N(C)Cc4cnc5nc(N)nc(N)c5n4)cc3)C(=O)O)nn2)C1 (stereo not shown) [MTX-PEG6-simvastatin]
Recurrence (x/5) (EIF1AY): 1 x/5
Recurrence (x/5) (DDTL): 1 x/5
Recurrence (x/5) (PYGM): 2 x/5
Recurrence (x/5) (LOC512271): 1 x/5
Recurrence (x/5) (LOC524129): 1 x/5
Recurrence (x/5) (RBP4): 1 x/5

Reference: patent US11231416B2, “Virus-like particle (VLP) based small molecule-protein interaction trap” (VIB VZW, priority 2015, dated 2022)
